Laboratory results as given in ChEMBL document CHEMBL3856191, “Structural modifications at the 6-position of thieno[2,3-d]pyrimidines and their effects on potency at FLT3 for treatment of acute myeloid leukemia” (Eur J Med Chem, 2016).

What was measured:
[1] = target: Tyrosine-protein kinase ABL1 (Homo sapiens, UniProt P00519); experiment: Inhibition of recombinant human ABL1 expressed in insect cells assessed as remaining activity at 10 uM preincubated for 15 mins followed by poly(Glu:Tyr) substrate addition for 30 mins in presence of [gamma-32P]ATP by […] assay
Sequence of Tyrosine-protein kinase ABL1 (P00519 whole entry): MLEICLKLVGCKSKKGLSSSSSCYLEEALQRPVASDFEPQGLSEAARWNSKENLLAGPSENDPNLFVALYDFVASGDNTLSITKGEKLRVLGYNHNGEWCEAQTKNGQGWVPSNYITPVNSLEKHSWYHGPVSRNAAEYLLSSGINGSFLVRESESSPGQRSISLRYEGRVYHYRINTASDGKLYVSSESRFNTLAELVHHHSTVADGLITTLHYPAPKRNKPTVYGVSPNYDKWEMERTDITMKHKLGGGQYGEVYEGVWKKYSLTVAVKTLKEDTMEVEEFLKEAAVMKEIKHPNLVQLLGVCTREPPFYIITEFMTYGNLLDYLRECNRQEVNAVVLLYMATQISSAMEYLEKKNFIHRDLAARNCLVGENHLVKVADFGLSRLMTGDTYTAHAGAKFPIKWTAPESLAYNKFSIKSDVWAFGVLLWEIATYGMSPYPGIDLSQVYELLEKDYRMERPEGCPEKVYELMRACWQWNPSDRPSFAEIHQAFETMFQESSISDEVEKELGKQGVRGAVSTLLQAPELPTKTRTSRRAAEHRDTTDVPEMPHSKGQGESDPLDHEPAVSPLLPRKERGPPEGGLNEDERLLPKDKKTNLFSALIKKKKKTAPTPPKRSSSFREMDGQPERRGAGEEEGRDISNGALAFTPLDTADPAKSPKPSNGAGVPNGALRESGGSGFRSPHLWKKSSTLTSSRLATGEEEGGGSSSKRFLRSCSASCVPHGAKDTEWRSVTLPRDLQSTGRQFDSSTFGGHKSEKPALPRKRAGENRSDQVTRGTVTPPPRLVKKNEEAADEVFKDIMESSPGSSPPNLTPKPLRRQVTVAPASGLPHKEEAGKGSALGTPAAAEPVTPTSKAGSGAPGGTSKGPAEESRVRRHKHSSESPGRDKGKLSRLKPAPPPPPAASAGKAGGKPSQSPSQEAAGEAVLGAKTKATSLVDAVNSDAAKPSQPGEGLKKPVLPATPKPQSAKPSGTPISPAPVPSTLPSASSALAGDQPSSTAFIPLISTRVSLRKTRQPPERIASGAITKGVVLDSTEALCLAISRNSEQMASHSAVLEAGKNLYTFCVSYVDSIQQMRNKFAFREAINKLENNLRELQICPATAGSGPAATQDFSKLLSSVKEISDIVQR

[2] = target: Tyrosine-protein kinase Fes/Fps (Homo sapiens) (UniProt P07332); experiment: Inhibition of recombinant human FES expressed in insect Sf21 cells assessed as remaining activity at 10 uM preincubated for 15 mins followed by poly(Glu:Tyr) substrate addition for 30 mins in presence of [gamma-32P]ATP by […] assay
Sequence of Tyrosine-protein kinase Fes/Fps (Homo sapiens) (P07332 whole entry): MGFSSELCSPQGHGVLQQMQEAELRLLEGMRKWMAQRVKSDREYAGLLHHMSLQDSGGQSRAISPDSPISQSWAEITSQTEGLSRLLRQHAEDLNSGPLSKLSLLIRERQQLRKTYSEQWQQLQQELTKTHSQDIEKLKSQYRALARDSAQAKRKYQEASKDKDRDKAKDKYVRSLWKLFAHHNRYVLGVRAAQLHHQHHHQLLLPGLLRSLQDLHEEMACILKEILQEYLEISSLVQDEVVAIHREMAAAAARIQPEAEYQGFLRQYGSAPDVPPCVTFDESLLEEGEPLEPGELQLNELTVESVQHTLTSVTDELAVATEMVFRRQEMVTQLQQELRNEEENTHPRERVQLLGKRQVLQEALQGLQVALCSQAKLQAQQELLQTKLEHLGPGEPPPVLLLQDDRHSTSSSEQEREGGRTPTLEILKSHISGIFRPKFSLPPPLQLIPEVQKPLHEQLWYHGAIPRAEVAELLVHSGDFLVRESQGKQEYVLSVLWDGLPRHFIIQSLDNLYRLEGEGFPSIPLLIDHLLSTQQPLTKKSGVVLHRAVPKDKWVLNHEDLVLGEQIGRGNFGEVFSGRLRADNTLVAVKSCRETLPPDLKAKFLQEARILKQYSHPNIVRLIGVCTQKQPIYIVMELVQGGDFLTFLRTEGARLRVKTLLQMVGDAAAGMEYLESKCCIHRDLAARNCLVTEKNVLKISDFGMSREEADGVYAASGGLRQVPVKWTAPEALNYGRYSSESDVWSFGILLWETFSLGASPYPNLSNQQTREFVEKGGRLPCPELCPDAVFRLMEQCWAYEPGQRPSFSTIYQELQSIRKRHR

[3] = target: Vascular endothelial growth factor receptor 3 (Homo sapiens) (UniProt P35916); experiment: Inhibition of recombinant human FLT4 expressed in insect cells assessed as remaining activity at 10 uM preincubated for 15 mins followed by poly(Glu:Tyr) substrate addition for 30 mins in presence of [gamma-32P]ATP by […] assay
Sequence of Vascular endothelial growth factor receptor 3 (Homo sapiens) (P35916 whole entry): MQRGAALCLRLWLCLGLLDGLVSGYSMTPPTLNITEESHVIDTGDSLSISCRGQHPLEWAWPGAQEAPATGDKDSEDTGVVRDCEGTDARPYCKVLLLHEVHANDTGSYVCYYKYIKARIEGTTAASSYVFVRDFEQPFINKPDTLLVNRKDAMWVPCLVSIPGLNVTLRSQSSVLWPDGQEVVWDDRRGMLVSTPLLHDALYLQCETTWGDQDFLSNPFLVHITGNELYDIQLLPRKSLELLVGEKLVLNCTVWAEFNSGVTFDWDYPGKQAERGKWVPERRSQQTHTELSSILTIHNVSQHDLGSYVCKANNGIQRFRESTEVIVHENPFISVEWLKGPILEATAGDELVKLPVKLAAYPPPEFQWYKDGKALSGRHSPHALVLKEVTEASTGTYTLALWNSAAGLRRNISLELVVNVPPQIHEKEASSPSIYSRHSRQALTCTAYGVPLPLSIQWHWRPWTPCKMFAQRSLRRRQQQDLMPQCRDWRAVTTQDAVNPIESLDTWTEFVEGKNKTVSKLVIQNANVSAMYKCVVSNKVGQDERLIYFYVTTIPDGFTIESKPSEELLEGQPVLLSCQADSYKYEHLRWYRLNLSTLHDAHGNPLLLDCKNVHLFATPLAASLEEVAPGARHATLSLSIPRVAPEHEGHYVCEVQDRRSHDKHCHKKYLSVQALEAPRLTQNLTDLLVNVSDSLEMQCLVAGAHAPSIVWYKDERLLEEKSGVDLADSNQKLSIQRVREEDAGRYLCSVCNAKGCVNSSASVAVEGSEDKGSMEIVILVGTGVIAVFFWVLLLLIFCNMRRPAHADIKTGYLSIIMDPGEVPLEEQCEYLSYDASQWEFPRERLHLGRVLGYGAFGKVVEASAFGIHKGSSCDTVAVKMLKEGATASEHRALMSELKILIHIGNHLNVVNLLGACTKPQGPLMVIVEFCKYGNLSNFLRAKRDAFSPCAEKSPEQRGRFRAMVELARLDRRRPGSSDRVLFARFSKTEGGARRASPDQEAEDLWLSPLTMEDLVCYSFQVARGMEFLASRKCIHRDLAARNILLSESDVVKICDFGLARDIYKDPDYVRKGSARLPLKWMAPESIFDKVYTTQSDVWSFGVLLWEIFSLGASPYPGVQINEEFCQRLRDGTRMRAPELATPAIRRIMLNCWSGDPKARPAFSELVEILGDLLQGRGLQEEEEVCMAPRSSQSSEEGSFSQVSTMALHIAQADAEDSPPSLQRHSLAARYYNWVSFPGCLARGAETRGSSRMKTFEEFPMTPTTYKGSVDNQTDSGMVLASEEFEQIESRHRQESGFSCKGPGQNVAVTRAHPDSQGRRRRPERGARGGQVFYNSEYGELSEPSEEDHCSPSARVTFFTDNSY

[4] = target: Mitogen-activated protein kinase 10 (Homo sapiens) (UniProt P53779); experiment: Inhibition of recombinant human JNK3 expressed in insect Sf21 cells assessed as remaining activity at 10 uM preincubated for 15 mins followed by ATF2 substrate addition for 30 mins in presence of [gamma-32P]ATP by […] assay
Sequence of Mitogen-activated protein kinase 10 (Homo sapiens) (P53779 whole entry): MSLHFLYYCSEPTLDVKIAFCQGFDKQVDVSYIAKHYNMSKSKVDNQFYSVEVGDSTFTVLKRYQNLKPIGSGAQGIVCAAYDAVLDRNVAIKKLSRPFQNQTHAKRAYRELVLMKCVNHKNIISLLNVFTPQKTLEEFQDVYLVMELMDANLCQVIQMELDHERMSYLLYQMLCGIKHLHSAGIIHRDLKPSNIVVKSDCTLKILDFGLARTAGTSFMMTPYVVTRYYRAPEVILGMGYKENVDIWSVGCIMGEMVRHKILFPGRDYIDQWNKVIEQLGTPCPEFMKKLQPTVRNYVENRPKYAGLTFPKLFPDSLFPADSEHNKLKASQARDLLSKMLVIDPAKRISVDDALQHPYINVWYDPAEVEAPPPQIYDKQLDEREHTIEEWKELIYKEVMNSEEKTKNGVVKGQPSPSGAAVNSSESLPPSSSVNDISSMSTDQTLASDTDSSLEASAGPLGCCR

[5] = AUC (0 to infinity) in Sprague-Dawley rat at 5 mg/kg, iv up to 24 hrs by LC/MS/MS analysis; format: ADME, organism-based; design: dose 5 mg/kg, route intravenous, time infinity; conditions: in vivo
[6] = Tmax in Sprague-Dawley rat at 30 mg/kg, po by LC/MS/MS analysis; format: ADME, organism-based; conditions: in vivo
[7] = Oral bioavailability in Sprague-Dawley rat at 30 mg/kg up to 24 hrs by LC/MS/MS analysis; format: ADME, organism-based; conditions: in vivo

CNCCOc1ccc(-c2sc3nc(-c4cccs4)nc(NN4C(=O)C=C(C)C4=O)c3c2C)cc1.Cl
Activity [1]: 11%
Activity [2]: 78%
Activity [3]: 24%
Activity [4]: 96%
AUC(0-inf) [5]: 2.12 µg·h/mL
Tmax [6]: 15 min
bioavailability [7]: 17%
